Data set [1] concerns IL-1 beta production by PBMC. Briefly: IL-1 beta assay, LPS-stimulated PBMC, sandwich ELISA. It counts as cell-based, human. The conditions noted are these: Table 7; same conditions as example 26; read-out: IL1β IC50. As for the experimental part: (§1) All reagents were dissolved in 0.5 ml dimethylsulfoxide (hereinafter referred as DMSO) and further diluted in culture medium before use for the following in vitro experiments. The commercially available culture medium consisted of RPMI-1640+10% foetal calf serum (FCS). Peripheral blood mononuclear cells (herein referred as PBMC), in response to stimulation by lipopolysaccharide (LPS), a gram-negative bacterial endotoxin, produce various […], in particular human TNF-alpha and II-1 beta. The inhibition of the activation of PBMC can be measured by the level of suppression of the production of TNF-alpha or IL-1 beta by PBMC in response to stimulation by LPS. Such inhibition measurement was performed as follows: PBMC were isolated from heparinized peripheral blood (Buffy coat) by density gradient centrifugation. LPS is then added to the PMBC suspension in complete medium (10^6 cells/ml) at a final concentration of 1 μg/ml. The compound to be tested was added at different dilution levels, and the cells were incubated at 37° C. for 72 hours. The supernatants were collected, and TNF-alpha or II-1 beta concentrations were measured with respectively an anti-TNF antibody or an anti-IL-1 beta antibody in a sandwich ELISA. The percent inhibition was calculated as: % inhibition=(pg/ml in sample−pg/ml min.)/(pg/ml max.−pg/ml min.)−1 wherein: min.: pg/ml in culture medium without test compound, and • max.: pg/ml in culture medium+LPS without test compound.
On the technique in general: ELISA stands for enzyme-linked immunosorbent assay.

Data set [2] deals with TNF-alpha production by PBMC. Briefly: TNF-alpha assay, LPS-stimulated PBMC, sandwich ELISA. Type of data set: cell-based, human. As to conditions: Table 7; same conditions as example 26; read-out: TNFα IC50. As for the experimental part: as §1
Data set [3] deals with murine experimental allergic encephalomyelitis. Briefly: Murine multiple sclerosis model (experimental allergic encephalomyelitis). The conditions noted are these: animals treated in the murine EAE model, 20 mg/kg/day. It counts as in vivo.
Data set [4] relates to peripheral blood mononuclear cells (PBMC). Briefly: Mixed lymphocyte reaction (MLR) test. Type of data set: cell-based, human. As to conditions: Table 7; same conditions as example 26. The protocol: All reagents were dissolved in 0.5 ml dimethylsulfoxide (hereinafter referred as DMSO) and further diluted in culture medium before use for the following in vitro experiments. The commercially available culture medium consisted of RPMI-1640+10% foetal calf serum (FCS). Peripheral blood mononuclear cells (hereinafter referred as PBMC) were isolated from heparinized peripheral blood by density gradient centrifugation over Lymphoprep (Nycomed, Maorstua, Norway). Allogeneic PBMC or […]-Barr Virus-transformed human B cells [commercially available under the trade name RPMI1788 (ATCC name CCL156)] which strongly express B7-1 and B7-2 antigens were used as stimulator cells after irradiation with 30 Gy. MLR was performed in triplicate wells. After 5 days incubation at 37° C., 1 μCi [^3H]-thymidine was added to each cup. After a further 16 hours incubation, cells were harvested and counted in a β-counter. Inhibition of proliferation by a compound (drug) described in some of the previous examples was counted using the formula: [formula] wherein cpm is the thymidine count per minute. TNF-Alpha and IL-1 Beta Assays

The subject of data set [5] is lymphocytes. The conditions noted are these: as disclosed in WO 00/45800; cited from earlier work.
Data set [6] has as its system CD3. As to conditions: as disclosed in WO 00/45800; cited from earlier work.
Data set [7] deals with CD 28. As to conditions: as disclosed in WO 00/45800; cited from earlier work.
Data set [8] has as its system murine experimental allergic encephalomyelitis. As to conditions: mouse, in vivo; cited from earlier work.

Consider three compounds from patent publication US20070043000A1, “Immunosuppresive effects of pteridine derivatives” (priority 2003, published 2007).

In the case of `Cn1c(=O)[nH]c(=O)c2nc(-c3ccc(F)cc3)c(Cl)nc21` [Example 42, 7-chloro-6-(4-fluorophenyl)-1-methyl-lumazine], the figures for the half-maximal inhibitory concentration (IC50) in data set [1], in data set [2] and in data set [4] were 0.7 µM, 4.7 µM and 4.8 µM, respectively. Further, the sign of toxicity result in data set [3] is recorded as “did not show any sign of toxicity”.

With `COc1ccc(-c2nc3c(nc2C(=O)c2ccccc2)c(=O)n(C)c(=O)n3C)cc1` [1,3-dimethyl-6-benzoyl-7-(4-methoxyphenyl)lumazine], in data set [5], the “result in Mixed Lymphocyte Reaction test” value is on record as “poor results”. In addition, in data set [6], the “result in CD3 assay” value is “poor results”. For the same compound, the “result in CD 28 assay” value in data set [7] is on record as “poor results”.

For the compound `O=C1c2c(O)ccc(O)c2C(=O)c2c(NCCNCCO)ccc(NCCNCCO)c21` [mitoxantrone], the “heart and kidney toxicity” value in data set [8] is “induces heart and kidney toxicity”.

For orientation: IC50 means the concentration at which inhibition is half-maximal.
